Our source for the EC50, Kd and Km values is paper PMC4764975, “Probing the enzyme kinetics, allosteric modulation and activation of α1- and α2-subunit-containing AMP-activated protein kinase (AMPK) heterotrimeric complexes by pharmacological and physiological activators” (Biochemical Journal, 2016).

Like-named read-outs stand apart in the source and are kept apart here.

The target in test [1] is T1, AMPK α2β2γ1 (Homo sapiens, UniProt O43741+P54619+P54646).
T1 construct: Recombinant full-length AMPK heterotrimeric complexes α1β1γ1, α1β2γ1, α1β2γ3, α2β1γ1, α2β2γ1 and α2β2γ3 were cloned; 6X-His (N); made in house; host or cells: E. coli BL21-CodonPlus (DE3)-RIPL
T1 sequence (P54646 whole entry): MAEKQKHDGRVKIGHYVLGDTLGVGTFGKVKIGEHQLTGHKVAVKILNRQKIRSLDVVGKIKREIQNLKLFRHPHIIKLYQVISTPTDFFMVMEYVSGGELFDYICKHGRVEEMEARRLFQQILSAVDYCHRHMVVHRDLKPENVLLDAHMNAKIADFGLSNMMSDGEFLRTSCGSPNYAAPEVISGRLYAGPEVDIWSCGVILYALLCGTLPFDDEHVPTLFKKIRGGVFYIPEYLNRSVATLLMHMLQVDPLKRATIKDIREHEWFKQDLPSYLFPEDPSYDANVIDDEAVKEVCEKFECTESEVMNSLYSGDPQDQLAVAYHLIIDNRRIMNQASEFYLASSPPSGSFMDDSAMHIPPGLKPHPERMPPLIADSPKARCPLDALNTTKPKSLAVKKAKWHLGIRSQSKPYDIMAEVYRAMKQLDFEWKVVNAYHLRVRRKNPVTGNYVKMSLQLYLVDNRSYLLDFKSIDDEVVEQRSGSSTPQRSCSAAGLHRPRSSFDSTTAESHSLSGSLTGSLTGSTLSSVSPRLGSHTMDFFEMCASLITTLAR
T1 sequence (O43741 whole entry): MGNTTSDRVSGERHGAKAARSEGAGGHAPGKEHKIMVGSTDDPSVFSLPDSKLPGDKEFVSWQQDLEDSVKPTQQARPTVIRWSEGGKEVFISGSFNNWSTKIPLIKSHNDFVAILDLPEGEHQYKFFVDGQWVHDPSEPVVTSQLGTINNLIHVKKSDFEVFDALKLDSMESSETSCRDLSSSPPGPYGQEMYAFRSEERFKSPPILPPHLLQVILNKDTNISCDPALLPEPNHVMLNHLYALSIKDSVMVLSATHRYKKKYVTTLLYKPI
T1 sequence (P54619 whole entry): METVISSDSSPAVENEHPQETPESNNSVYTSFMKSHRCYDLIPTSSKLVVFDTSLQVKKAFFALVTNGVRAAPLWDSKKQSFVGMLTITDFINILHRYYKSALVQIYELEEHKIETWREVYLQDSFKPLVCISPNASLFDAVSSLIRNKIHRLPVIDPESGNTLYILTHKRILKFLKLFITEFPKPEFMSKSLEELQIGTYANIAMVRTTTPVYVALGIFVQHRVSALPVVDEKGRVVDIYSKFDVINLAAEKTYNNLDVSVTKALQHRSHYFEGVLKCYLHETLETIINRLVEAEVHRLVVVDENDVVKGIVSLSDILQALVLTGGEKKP
In words: Phosphatase (PP2Aα) sensitivity, pThr172/174 dephosphorylation. The following applies: PP2Aα concentration for half-maximal dephosphorylation, absence of activator, read-out: PP2Aα sensitivity dEC50. It is filed as biochemical. As for the experimental part: (§1) Test compound was previously diluted in half-log increments, starting at 40 μM in 100% DMSO, diluted 10-fold in assay buffer and dispensed into a microtitre plate. After 15 min at room temperature, phosphatase was added to the mixture and the reaction was allowed to proceed for 60 min at room temperature. Reactions were quenched by the addition of okadaic acid, and transferred to PVDF membrane using the slot-blot apparatus and subjected to immunoblotting. Phosphatase sensitivity was similarly assessed by subjecting pAMPK to a phosphatase (PP2Aα) treatment using various concentrations and incubation times. The concentration of phosphatase was expressed as nmol of PP2Aα per minute per nmol of pAMPK in the reaction.
(§2) The membrane was blocked with Western Blot Blocking Buffer Reagent (Li-Cor) for 3–4 h at room temperature. The blot was probed using a rabbit α-pThr^172/174-specific antibody (Cell Signaling 40H9) at 1:500 dilution for 2 h and washed three times using 1 × PBS/0.1% Tween 20 (42°C pre-warmed wash buffer). Following the wash step, goat anti-rabbit 800CW (Rockland) at 1:10000 dilution was used as a secondary antibody. Blots were visualized using the Li-Cor Odyssey infrared imaging system and signal quantification was performed using the Odyssey software. The pEC50 values (estimated concentration of activator required for half-maximal protection of pThr^172/174 from PP2α) were calculated using GraphPad Prism software.
(§3) We then examined the sensitivity of phospho-α-Thr^172/174 (pThr^172/174) for dephosphorylation by phosphatase (PP2Aα) in the absence of allosteric modulators. The extent of dephosphorylation was measured using an antibody specific to α-pThr^172/174 as described in ‘Experimental’ section. […] The presence of the regulatory subunits (β and γ) leads to increased protection of pAMPK from dephosphorylation compared with the kinase domains alone (Figure 6). […] The dEC50 values for α2-containing isoforms were 40, 57 and 41 nM for α2β1γ1, α2β2γ1 and α2β2γ3 respectively; 13- to 18-fold right-shifted compared with that for isolated α2-kinase domain (Figure 6).
(§4) Figure 6 Phosphatase (PP2Aα) sensitivity of AMPK isoforms Effect of phosphatase (PP2Aα) on pThr^172/174 dephosphorylation of AMPK isoforms in the absence of activators is shown. Data are mean (n=2), and curves were generated using best-fit values.

Test [2] has as its target T2, AMPK α1β2γ3 (Homo sapiens, UniProt O43741+Q13131+Q9UGI9).
T2 construct: Recombinant full-length AMPK heterotrimeric complexes α1β1γ1, α1β2γ1, α1β2γ3, α2β1γ1, α2β2γ1 and α2β2γ3 were cloned; 6X-His (N); made in house; host or cells: E. coli BL21-CodonPlus (DE3)-RIPL
The description is as above. The following applies: PP2Aα concentration for half-maximal dephosphorylation, absence of activator, read-out: PP2Aα sensitivity dEC50. In kind it is biochemical. The protocol: as §1, §2, §3, §4

For test [3], the target named is T3, AMPK α1-kinase domain (α1-KD) (Homo sapiens, UniProt Q13131).
T3 construct: AMPK α1-kinase domain (α1-KD; residues 18–293); 6X-His (N); made in house; host or cells: E. coli BL21-CodonPlus (DE3)-RIPL (pET28a)
T3 sequence (Q13131 18-293): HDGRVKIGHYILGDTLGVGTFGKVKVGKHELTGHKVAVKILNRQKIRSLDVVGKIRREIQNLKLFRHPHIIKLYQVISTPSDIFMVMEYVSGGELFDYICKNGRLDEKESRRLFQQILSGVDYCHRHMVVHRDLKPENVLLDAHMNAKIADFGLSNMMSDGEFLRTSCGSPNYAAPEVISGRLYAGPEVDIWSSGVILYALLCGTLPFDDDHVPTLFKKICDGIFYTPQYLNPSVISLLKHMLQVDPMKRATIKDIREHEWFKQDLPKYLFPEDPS
The description is as above. The following applies: PP2Aα concentration for half-maximal dephosphorylation, absence of activator, read-out: PP2Aα sensitivity dEC50. In kind it is biochemical. The protocol: as §1, §2, §3, §4

Test [4] concerns the target T4, AMPK α2β2γ3 (Homo sapiens, UniProt O43741+P54646+Q9UGI9).
T4 construct: Recombinant full-length AMPK heterotrimeric complexes α1β1γ1, α1β2γ1, α1β2γ3, α2β1γ1, α2β2γ1 and α2β2γ3 were cloned; 6X-His (N); made in house; host or cells: E. coli BL21-CodonPlus (DE3)-RIPL
The description is as above. The following applies: PP2Aα concentration for half-maximal dephosphorylation, absence of activator, read-out: PP2Aα sensitivity dEC50. In kind it is biochemical. As for the experimental part: as §1, §2, §3, §4

The target in test [5] is T5, AMPK α2-kinase domain (α2-KD) (Homo sapiens, UniProt P54646).
T5 construct: α2-kinase domain (α2-KD; residues 7–282); 6X-His (N); made in house; host or cells: E. coli BL21-CodonPlus (DE3)-RIPL (pET28a)
T5 sequence (P54646 7-282): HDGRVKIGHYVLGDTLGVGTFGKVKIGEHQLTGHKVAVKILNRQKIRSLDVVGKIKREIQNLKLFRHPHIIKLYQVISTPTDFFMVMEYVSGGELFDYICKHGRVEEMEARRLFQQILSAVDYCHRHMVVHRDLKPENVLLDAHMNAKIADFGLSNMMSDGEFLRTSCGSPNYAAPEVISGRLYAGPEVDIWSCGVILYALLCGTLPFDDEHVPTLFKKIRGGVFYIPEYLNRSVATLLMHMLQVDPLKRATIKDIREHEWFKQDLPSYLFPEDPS
The description is as above. The following applies: PP2Aα concentration for half-maximal dephosphorylation, absence of activator, read-out: PP2Aα sensitivity dEC50. In kind it is biochemical. The protocol: as §1, §2, §3, §4

Test [6] concerns the target T6, AMPK α2β1γ1 (Homo sapiens, UniProt P54619+P54646+Q9Y478).
T6 construct: Recombinant full-length AMPK heterotrimeric complexes α1β1γ1, α1β2γ1, α1β2γ3, α2β1γ1, α2β2γ1 and α2β2γ3 were cloned; 6X-His (N); made in house; host or cells: E. coli BL21-CodonPlus (DE3)-RIPL
The test is described as above. It is filed as biochemical. The following applies: PP2Aα concentration for half-maximal dephosphorylation, absence of activator, read-out: PP2Aα sensitivity dEC50. As for the experimental part: as §1, §2, §3, §4

In test [7] the target is T7, BAP-tagged AMPK α2β2γ3 (Homo sapiens, UniProt O43741+P54646+Q9UGI9).
T7 construct: Recombinant full-length AMPK heterotrimeric complexes α1β1γ1, α1β2γ1, α1β2γ3, α2β1γ1, α2β2γ1 and α2β2γ3 were cloned into a tricistronic vector system; 6X-His (N); made in house; host or cells: E. coli BL21-CodonPlus (DE3)-RIPL, co-expressed with BirA
T7 sequence (P54646 whole entry): as the sequence (P54646 whole entry) above
T7 sequence (O43741 whole entry): as the sequence (O43741 whole entry) above
T7 sequence (Q9UGI9 whole entry): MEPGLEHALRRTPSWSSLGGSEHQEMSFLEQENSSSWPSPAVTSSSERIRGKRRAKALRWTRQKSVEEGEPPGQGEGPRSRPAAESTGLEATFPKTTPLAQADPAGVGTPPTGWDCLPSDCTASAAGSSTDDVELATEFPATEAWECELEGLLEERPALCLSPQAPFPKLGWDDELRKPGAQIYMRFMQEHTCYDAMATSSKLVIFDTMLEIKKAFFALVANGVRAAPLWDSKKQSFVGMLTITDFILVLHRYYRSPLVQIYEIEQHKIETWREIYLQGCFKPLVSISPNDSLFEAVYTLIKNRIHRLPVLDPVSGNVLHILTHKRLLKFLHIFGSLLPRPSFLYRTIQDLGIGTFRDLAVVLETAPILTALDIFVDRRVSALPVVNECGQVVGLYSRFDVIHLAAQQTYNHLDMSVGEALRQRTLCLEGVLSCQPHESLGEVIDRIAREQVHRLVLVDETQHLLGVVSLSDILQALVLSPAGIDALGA
In words: SPR direct binding (Biacore). The protocol: (§5) SPR experiments were performed on a Biacore™ 3000 instrument (GE Healthcare). BAP-tagged AMPK isoform (α1β1γ1, α1β2γ1, α2β2γ1, α2β2γ3) was captured on to a streptavidin sensor chip to levels ranging from 4000 to 6000 RU. […] Binding responses were processed using Scrubber 2 (BioLogic Software Pty Ltd) to zero, x-align, double reference and corrected for excluded volume effect of DMSO in the data. […] The compound was injected at a flow rate of 50 μl/min with total contact time of 120 s and dissociation time of 600 s. Rate parameters (kon, koff) and corresponding dissociation constant(KD=koff/kon) were determined by globally fitting all of the experimental data to a simple 1:1 interaction model using Biaeval software (GE Healthcare). To determine nt binding, 10 concentrations with 2-fold dilutions were tested in duplicate. The highest concentration tested was 2 mM. The compound was injected at a flow rate of 50 μl/min with total contact time of 120 s and dissociation time of 300 s. Equilibrium dissociation constant (KD) was determined using a steady-state affinity algorithm available within Scrubber.
(§6) We then compared the binding of nts (AMP, ADP and ATP) to α1β1γ1, α1β2γ1, α2β2γ1 and α2β2γ3 isoforms in the presence and absence of Mg^2+ and Stau, using SPR technique.
Background: In SPR one partner is held on a chip, and binding of the other changes the refractive index at the surface.

Test [8] has as its target T8, BAP-tagged AMPK α1β2γ1 (Homo sapiens, UniProt O43741+P54619+Q13131).
T8 construct: Recombinant full-length AMPK heterotrimeric complexes α1β1γ1, α1β2γ1, α1β2γ3, α2β1γ1, α2β2γ1 and α2β2γ3 were cloned into a tricistronic vector system; 6X-His (N); made in house; host or cells: E. coli BL21-CodonPlus (DE3)-RIPL, co-expressed with BirA
Description: SPR direct binding (Biacore). As for the experimental part: as §5, §6

Test [9] deals with T9, BAP-tagged AMPK α2β2γ1 (Homo sapiens, UniProt O43741+P54619+P54646).
T9 construct: Recombinant full-length AMPK heterotrimeric complexes α1β1γ1, α1β2γ1, α1β2γ3, α2β1γ1, α2β2γ1 and α2β2γ3 were cloned into a tricistronic vector system; 6X-His (N); made in house; host or cells: E. coli BL21-CodonPlus (DE3)-RIPL, co-expressed with BirA
T9 sequence (P54646 whole entry): as the sequence (P54646 whole entry) above
T9 sequence (O43741 whole entry): as the sequence (O43741 whole entry) above
T9 sequence (P54619 whole entry): as the sequence (P54619 whole entry) above
In words: SPR direct binding (Biacore). As for the experimental part:
as §5
(§7) We then compared the binding of nts (AMP, ADP and ATP) to α1β1γ1, α1β2γ1, α2β2γ1 and α2β2γ3 isoforms in the presence and absence of Mg^2+ and Stau, using SPR technique. […]

For test [10], the target named is T10, BAP-tagged AMPK α1β1γ1 (Homo sapiens, UniProt P54619+Q13131+Q9Y478).
T10 construct: Recombinant full-length AMPK heterotrimeric complexes α1β1γ1, α1β2γ1, α1β2γ3, α2β1γ1, α2β2γ1 and α2β2γ3 were cloned; 6X-His (N); AviTag (BAP); made in house; host or cells: E. coli (co-expressed with BirA)
T10 sequence (Q13131 whole entry): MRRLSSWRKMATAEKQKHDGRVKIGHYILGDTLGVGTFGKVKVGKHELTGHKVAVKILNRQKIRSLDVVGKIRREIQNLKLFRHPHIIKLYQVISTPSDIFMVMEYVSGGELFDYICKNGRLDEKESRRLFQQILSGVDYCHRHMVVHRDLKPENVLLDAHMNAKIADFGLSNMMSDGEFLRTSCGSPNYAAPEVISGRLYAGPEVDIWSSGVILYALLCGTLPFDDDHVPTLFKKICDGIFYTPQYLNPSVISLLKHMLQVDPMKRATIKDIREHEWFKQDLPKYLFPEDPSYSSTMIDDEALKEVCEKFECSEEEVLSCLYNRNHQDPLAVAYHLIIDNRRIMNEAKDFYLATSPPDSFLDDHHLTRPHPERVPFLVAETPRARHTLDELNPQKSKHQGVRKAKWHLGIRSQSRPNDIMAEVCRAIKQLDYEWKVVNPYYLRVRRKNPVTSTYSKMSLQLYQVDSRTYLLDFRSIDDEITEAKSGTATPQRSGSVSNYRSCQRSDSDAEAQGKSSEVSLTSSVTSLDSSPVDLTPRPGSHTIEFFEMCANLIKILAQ
T10 sequence (Q9Y478 whole entry): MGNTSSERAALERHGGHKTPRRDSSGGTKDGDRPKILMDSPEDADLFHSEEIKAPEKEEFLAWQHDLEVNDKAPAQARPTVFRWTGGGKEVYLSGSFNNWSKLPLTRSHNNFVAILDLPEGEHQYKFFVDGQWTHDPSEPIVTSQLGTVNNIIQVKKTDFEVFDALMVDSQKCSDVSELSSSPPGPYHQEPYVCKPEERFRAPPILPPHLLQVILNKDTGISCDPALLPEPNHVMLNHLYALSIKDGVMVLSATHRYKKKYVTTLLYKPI
T10 sequence (P54619 whole entry): as the sequence (P54619 whole entry) above
In words: SPR direct binding (Biacore). As for the experimental part:
as §5, §7

The target in test [11] is full-length, pAMPK. On the set-up: method as in PMID 21399626. The following applies: presence of Mg2+, cited from earlier work.
Test [12] has as its target T1, AMPK α2β2γ1. Description: Steady-state kinetics, radiometric SAMS assay. It is filed as biochemical. The following applies: absence of AMP, SAMS fixed at ~10-fold Km, read-out: Km ATP. The protocol: (§8) The kinase activity of pAMPK was measured via AMPK-mediated incorporation of ^33phosphate from [^33P]ATP into the synthetic peptide called SAMS [31] using the radiometric assay as described before. […] Assay linearity was ensured by determining that <30% substrate was depleted for all concentrations tested. The Km values were obtained in the absence of AMP in the reaction. Data were fitted by non-linear regression to the Michaelis–Menten equation using GraphPad prism to obtain the kinetic parameters. The specific radioactivity of each isoform was determined at saturating concentrations of each substrate.

Test [13] has as its target T2, AMPK α1β2γ3. In words: Steady-state kinetics, radiometric SAMS assay. In kind it is biochemical. The following applies: absence of AMP, SAMS fixed at ~10-fold Km, read-out: Km ATP. As for the experimental part:
as §8

Test [14] addresses T11, AMPK α1β1γ1 (Homo sapiens, UniProt P54619+Q13131+Q9Y478).
T11 construct: Recombinant full-length AMPK heterotrimeric complexes α1β1γ1, α1β2γ1, α1β2γ3, α2β1γ1, α2β2γ1 and α2β2γ3 were cloned; 6X-His (N); made in house; host or cells: E. coli BL21-CodonPlus (DE3)-RIPL
In words: Steady-state kinetics, radiometric SAMS assay. It is filed as biochemical. The following applies: absence of AMP, SAMS fixed at ~10-fold Km, read-out: Km ATP. As for the experimental part: as §8

Test [15] addresses T4, AMPK α2β2γ3. Description: Steady-state kinetics, radiometric SAMS assay. It is filed as biochemical. The following applies: absence of AMP, SAMS fixed at ~10-fold Km, read-out: Km ATP. As for the experimental part:
as §8

The target of test [16] is T12, AMPK α1β2γ1 (Homo sapiens, UniProt O43741+P54619+Q13131).
T12 construct: Recombinant full-length AMPK heterotrimeric complexes α1β1γ1, α1β2γ1, α1β2γ3, α2β1γ1, α2β2γ1 and α2β2γ3 were cloned; 6X-His (N); made in house; host or cells: E. coli BL21-CodonPlus (DE3)-RIPL
T12 sequence (Q13131 whole entry): as the sequence (Q13131 whole entry) above
T12 sequence (O43741 whole entry): as the sequence (O43741 whole entry) above
T12 sequence (P54619 whole entry): as the sequence (P54619 whole entry) above
Description: Steady-state kinetics, radiometric SAMS assay. It is filed as biochemical. The following applies: absence of AMP, SAMS fixed at ~10-fold Km, read-out: Km ATP. As for the experimental part: as §8

The target in test [17] is T6, AMPK α2β1γ1. In words: Steady-state kinetics, radiometric SAMS assay. It is filed as biochemical. The following applies: absence of AMP, SAMS fixed at ~10-fold Km, read-out: Km ATP. The protocol:
as §8

Setting [18] is: presence of Mg2+ and 25 nM Stau, cell spans KD1 and KD2, read-out: KD (single measurable binding affinity).
Setting [19] is: presence of Mg2+, cell spans KD1 and KD2, read-out: KD (single measurable binding affinity).
The mark [20] stands for this setting: tighter site, absence of Mg2+ and Stau, read-out: KD1.
The mark [21] stands for this setting: weaker site, absence of Mg2+ and Stau, read-out: KD2.

T8 sequence (Q13131 whole entry): as the sequence (Q13131 whole entry) above
T8 sequence (O43741 whole entry): as the sequence (O43741 whole entry) above
T8 sequence (P54619 whole entry): as the sequence (P54619 whole entry) above
T2 sequence (Q13131 whole entry): as the sequence (Q13131 whole entry) above
T2 sequence (O43741 whole entry): as the sequence (O43741 whole entry) above
T2 sequence (Q9UGI9 whole entry): as the sequence (Q9UGI9 whole entry) above
T6 sequence (P54646 whole entry): as the sequence (P54646 whole entry) above
T6 sequence (Q9Y478 whole entry): as the sequence (Q9Y478 whole entry) above
T6 sequence (P54619 whole entry): as the sequence (P54619 whole entry) above
T4 sequence (P54646 whole entry): as the sequence (P54646 whole entry) above
T4 sequence (O43741 whole entry): as the sequence (O43741 whole entry) above
T4 sequence (Q9UGI9 whole entry): as the sequence (Q9UGI9 whole entry) above
T11 sequence (Q13131 whole entry): as the sequence (Q13131 whole entry) above
T11 sequence (Q9Y478 whole entry): as the sequence (Q9Y478 whole entry) above
T11 sequence (P54619 whole entry): as the sequence (P54619 whole entry) above

As for “PP2Aα: Human recombinant protein phosphatase 2Aα catalytic subunit expressed in insect cells”, the EC50 in [1] is 0.057 µM; in [2] it was 0.441 µM; in test [3], 0.0032 µM; in [4], 0.041 µM; in test [5], 0.0013 µM; in [6] it was 0.04 µM.
In the case of `Nc1ncnc2c1ncn2[C@@H]1O[C@H](COP(=O)(O)OP(=O)(O)OP(=O)(O)O)[C@@H](O)[C@H]1O` [ATP], the Kd in test [7] (setting [18]) worked out at 540 ± 20 µM; in test [7] (setting [19]) it was 277 ± 4 µM; in test [7] (setting [20]) it was 7.6 ± 0.6 µM; in [7] (setting [21]), 3500 ± 300 µM; in test [8] (setting [18]) it was 400 ± 20 µM; in test [8] (setting [19]), 95 ± 1 µM. Further, the Kd in [8] (setting [20]) was 1.1 ± 0.04 µM; in test [8] (setting [21]) it was 3400 ± 300 µM; in test [9] (setting [18]) it was 133 ± 4 µM; in test [9] (setting [19]), 95 ± 1 µM; in test [9] (setting [20]), 0.92 ± 0.03 µM; in test [9] (setting [21]), 2900 ± 200 µM. The Kd is 300 ± 10 µM in test [10] (setting [18]); 130 ± 1 µM in test [10] (setting [19]); 1.35 ± 0.02 µM in [10] (setting [20]); 2260 ± 90 µM in test [10] (setting [21]); 18 µM in test [11] (read-out: equilibrium dissociation constant, stronger binding site); 230 µM in test [11] (read-out: equilibrium dissociation constant, weaker binding site). In addition, the Km – broadly, the substrate concentration at which the rate is half of its maximum – in test [12] came out at 48 ± 5 µM; in test [13], 333 ± 65 µM; in [14], 26 ± 5.6 µM; in test [15], 417 ± 39 µM; in [16], 45.1 ± 5.8 µM; in [17], 31.4 ± 9.3 µM.
